This passage reports IC50 results from US20230339970A1, “CASEIN KINASE 1 DELTA MODULATORS” (priority 2020, published 2023).

Where only a bound is given, the exact number is not on record here.

One test addresses T1, human CSNK1D (Homo sapiens, UniProt P48730).
T1 construct: expressed in transfected cells
The test can be described thus: Whole Cell nBRET CSNK1D Binding Assay. To be noted: living CHO cells stably expressing human CSNK1D tagged with nanoluciferase; NanoBret tracer 130 nM; 2 hours at 37 C.

Test [1] concerns the target T2, human recombinant GST cleaved CSNK1D (Homo sapiens, UniProt P48730).
T2 construct: GST (cleaved yes); purchased University of Dundee clone DU 19064
The test can be described thus: Purified Enzyme Assay (ADP-Glo CSNK1D Kinase Assay). Format: biochemical. The following applies: 2 nM CSNK1D; peptide substrate 150 μM; ATP 20 μM; 45 minutes at room temperature. In a few lines: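 GST-cleaved human recombinant CSNK1D phosphorylates peptide PLSRTL-pS-VASLPGL with ATP; compounds added in dose-response, 45 min at room temperature. ADP formed measured by ADP-Glo luminescence and converted to percent activity.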

T1 sequence (P48730 whole entry): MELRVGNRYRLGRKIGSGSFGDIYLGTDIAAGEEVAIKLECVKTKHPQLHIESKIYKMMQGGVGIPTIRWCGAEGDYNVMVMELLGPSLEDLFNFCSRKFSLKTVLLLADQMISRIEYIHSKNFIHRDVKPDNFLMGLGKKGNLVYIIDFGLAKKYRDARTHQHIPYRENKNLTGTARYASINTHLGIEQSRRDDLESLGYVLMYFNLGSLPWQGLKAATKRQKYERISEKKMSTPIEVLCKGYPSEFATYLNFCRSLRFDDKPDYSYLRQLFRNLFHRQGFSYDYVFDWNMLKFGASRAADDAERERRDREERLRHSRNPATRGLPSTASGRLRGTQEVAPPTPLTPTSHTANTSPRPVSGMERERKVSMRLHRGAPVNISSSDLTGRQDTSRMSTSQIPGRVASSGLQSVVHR
T2 sequence (P48730 whole entry): as above

`CC1(C)Cn2nc(-c3cnco3)c(-c3ccnc4[nH]ncc34)c2CO1` [Example 126, 6,6-Dimethyl-2-(oxazol-5-yl)-3-(1H-pyrazolo[3,4-b]pyridin-4-yl)-6,7-dihydro-4H-pyrazolo[5,1-c][1,4]oxazine]: the IC50 on human CSNK1D worked out at 827 nM; in test [1], 21 nM.
The matching figures for `Clc1ccc(-c2nn3c(c2-c2ccnc4[nH]ncc24)COCC3)cc1` [Example 67, 2-(4-Chlorophenyl)-3-(1H-pyrazolo[3,4-b]pyridin-4-yl)-6,7-dihydro-4H-pyrazolo[5,1-c][1,4]oxazine]: 243 nM and 20 nM.
`CC(=O)Nc1cc(-c2c(-c3ccc(F)cc3)nn3c2CCC2C3C2(F)F)ccn1` (racemic) [Example 348, N-(4-(6,6-Difluoro-2-(4-fluorophenyl)-5,5a,6,6a-tetrahydro-4H-cyclopropa[e]pyrazolo[1,5-a]pyridin-3-yl)pyridin-2-yl)acetamide]: the IC50 at human CSNK1D came out at 3 nM; in test [1] it was 1 nM.
Turning to `[2H]C([2H])([2H])C1(C([2H])([2H])[2H])Cn2nc(-c3ccc(F)cn3)c(-c3c(F)cnc4[nH]nc(C)c34)c2CO1` [Example 404, 3-(5-Fluoro-3-methyl-1H-pyrazolo[3,4-b]pyridin-4-yl)-2-(5-fluoropyridin-2-yl)-6,6-bis(methyl-d3)-6,7-dihydro-4H-pyrazolo[5,1-c][1,4]oxazine], the IC50 turned out to be 137 nM on human CSNK1D and 9 nM in test [1].
In the same order, the values of `[2H]C([2H])([2H])[C@@]1(C(F)(F)F)Cn2nc(-c3ccc(F)cn3)c(-c3c(F)c(C)nc4[nH]nc(C)c34)c2CO1` (single isomer, unassigned) [Example 431, (*S)-3-(5-Fluoro-3,6-dimethyl-1H-pyrazolo[3,4-b]pyridin-4-yl)-2-(5-fluoropyridin-2-yl)-6-(methyl-d3)-6-(trifluoromethyl)-6,7-dihydro-4H-pyrazolo[5,1-c][1,4]oxazine] are > 10000 nM and 1580 nM.
The matching figures for `CC1(C)Cn2nc(-c3ccc(F)cn3)c(-c3cc(N)n4nccc4c3)c2CO1` [Example 380, 5-[2-(5-Fluoro-2-pyridyl)-6,6-dimethyl-4,7-dihydropyrazolo[5,1-c][1,4]oxazin-3-yl]pyrazolo[1,5-a]pyridin-7-amine]: 93 nM and 10 nM.
In the same order, the values of `Fc1ccc(-c2nn3c(c2-c2ccnc4[nH]ncc24)CO[C@H](C2CC2)C3)nc1` (single isomer, unassigned) [Example 108, (*R)-6-Cyclopropyl-2-(5-fluoropyridin-2-yl)-3-(1H-pyrazolo[3,4-b]pyridin-4-yl)-6,7-dihydro-4H-pyrazolo[5,1-c][1,4]oxazine] are 681 nM and 41 nM.
`C[C@@H]1n2nc(-c3ccc(F)cn3)c(-c3ccnc4[nH]nc(Cl)c34)c2COC1(C)C` (single isomer, unassigned) [Example 437, (*S)-3-(3-Chloro-1H-pyrazolo[3,4-b]pyridin-4-yl)-2-(5-fluoropyridin-2-yl)-6,6,7-trimethyl-6,7-dihydro-4H-pyrazolo[5,1-c][1,4]oxazine]: the half-maximal inhibitory concentration (IC50) on human CSNK1D stood at 46 nM; in test [1], 5 nM.
With `CCn1ncc2cc(-c3c(-c4ccc(F)cn4)nn4c3COC(C)(C)C4)cnc21` [Example 141, 3-(1-Ethyl-1H-pyrazolo[3,4-b]pyridin-5-yl)-2-(5-fluoropyridin-2-yl)-6,6-dimethyl-6,7-dihydro-4H-pyrazolo[5,1-c][1,4]oxazine], the figures for the half-inhibitory concentration (IC50) (on human CSNK1D; in test [1]) were 5690 nM and 344 nM, respectively.
In the same order, the values of `Fc1ccc(-c2nn3c(c2-c2ccnc4[nH]ncc24)OCC2(C3)CC2(F)F)nc1` (single isomer, unassigned) [Example 479, (*R)-2,2-Difluoro-2′-(5-fluoropyridin-2-yl)-3′-1H-pyrazolo[3,4-b]pyridin-4-yl)-5′H,7′H-spiro[cyclopropane-1,6′-pyrazolo[5,1-b][1,3]oxazine]] are 1320 nM and 32 nM.
On to `Fc1ccc(-c2nn3c(c2-c2ccnc4[nH]ncc24)C[C@H]2[C@@H](C3)C2(F)F)cc1` (stereo in doubt) [Example 363, (4a*S,5a*S)-5,5-Difluoro-2-(4-fluorophenyl)-3-(1H-pyrazolo[3,4-b]pyridin-4-yl)-4a,5,5a,6-tetrahydro-4H-cyclopropa[d]pyrazolo[1,5-a]pyridine], for which the IC50 on human CSNK1D was 1410 nM; in test [1], 60 nM.
The matching figures for `Cc1cc(-c2c(-c3ccc(F)cc3)nn3c2OCCC3)c2cn[nH]c2n1` [Example 185, 2-(4-Fluorophenyl)-3-(6-methyl-1H-pyrazolo[3,4-b]pyridin-4-yl)-6,7-dihydro-5H-pyrazolo[5,1-b][1,3]oxazine]: 17 nM and 1 nM.
Take `[2H]C([2H])([2H])[C@@]1(C(F)(F)F)Cn2nc(-c3ccc(F)cn3)c(-c3cc(C)nc4[nH]nc(C)c34)c2CO1` (single isomer, unassigned) [Example 429, (*S)-3-(3,6-Dimethyl-1H-pyrazolo[3,4-b]pyridin-4-yl)-2-(5-fluoropyridin-2-yl)-6-(methyl-d3)-6-(trifluoromethyl)-6,7-dihydro-4H-pyrazolo[5,1-c][1,4]oxazine]: the IC50 on human CSNK1D is 2230 nM; in test [1], 133 nM.
On to `CC[C@]1(C)Cn2nc(-c3ccc(F)cn3)c(-c3ccnc4[nH]ncc34)c2CO1` (single isomer, unassigned) [Example 169, (*R)-6-Ethyl-2-(5-fluoropyridin-2-yl)-6-methyl-3-(1H-pyrazolo[3,4-b]pyridin-4-yl)-6,7-dihydro-4H-pyrazolo[5,1-c][1,4]oxazine], for which the IC50 came out at 134 nM at human CSNK1D and 4 nM in test [1].
On to `COCC[C@@]1(C)CCc2c(-c3ccnc4[nH]ncc34)c(-c3ccc(F)cn3)nn2C1` (single isomer, unassigned) [Example 319, (*R)-4-[2-(5-Fluoro-2-pyridyl)-6-(2-methoxyethyl)-6-methyl-5,7-dihydro-4H-pyrazolo[1,5-a]pyridin-3-yl]-1H-pyrazolo[3,4-b]pyridine], for which the IC50 at human CSNK1D was 81 nM; in test [1], 5 nM.
Take `COc1ccc2nccc(-c3c(-c4ccc(F)cn4)nn4c3COC(C)(C)C4)c2n1` [Example 168, 2-(5-Fluoropyridin-2-yl)-3-(6-methoxy-1,5-naphthyridin-4-yl)-6,6-dimethyl-6,7-dihydro-4H-pyrazolo[5,1-c][1,4]oxazine]: the IC50 stood at 836 nM at human CSNK1D and 19 nM in test [1].
On to `Cc1nc2[nH]ncc2c(-c2c(-c3ccc(F)cn3)nn3c2OC[C@H]2C[C@H]2C3)c1F` (stereo in doubt) [Example 482, (5a*R,6a*S)-3-(5-Fluoro-6-methyl-1H-pyrazolo[3,4-b]pyridin-4-yl)-2-(5-fluoropyridin-2-yl)-5a,6,6a,7-tetrahydro-5H-cyclopropa[e]pyrazolo[5,1-b][1,3]oxazepine], for which the half-maximal inhibitory concentration (IC50) on human CSNK1D was found to be 79 nM; in test [1], 8 nM.
As for `[2H]C([2H])([2H])[C@]1(C([2H])([2H])F)CCc2c(-c3c(F)cnc4[nH]ncc34)c(-c3ccc(F)cn3)nn2C1` (single isomer, unassigned) [Example 295, (*S)-5-Fluoro-4-(6-(fluoromethyl-d2)-2-(5-fluoropyridin-2-yl)-6-(methyl-d5)-4,5,6,7-tetrahydropyrazolo[1,5-a]pyridin-3-yl)-1H-pyrazolo[3,4-b]pyridine], the IC50 on human CSNK1D was 24 nM; in test [1] it was 2 nM.
